In patent US20110124745A1, “Switchable Anionic Surfactants and Methods of Making and Using Same” (priority 2009, published 2011):
Several values for one entry are separate records, joined by “and”; a condition that tells them apart may be missing. Equal values may be shown once.

Assays:
Type in all cases: physicochemical
[1] = pH studies of ON and OFF surfactant solutions
Procedure: For pH studies described below, a pH meter (Orion 4 Star Conductivity Benchtop, available from ThermoElectron Corporation, Mass., USA) was used. The pH meter was calibrated before the measurements as per the instructions provided with the pH meter. All solutions were prepared using deionized water. All pH measurements were done at 25° C.
Surfactant solution was prepared by dissolving n-octyl 4-hydroxy-3-nitrobenzoate (0.443 g, 1.502 mmol) and anhydrous Na2CO3 (1.27 g, 12.02 mmol) in 150 mL of deionized water. The resultant solution was homogenized by sonication for 2 min. Aliquots (10.0 mL) of this solution were transferred into eleven different vials numbered as 1, 2, 3, 4, 5, 6, 7, 8, 9, 10, and 11 by Hamilton syringe. The level of the solution in each vial was marked using a marker. Stirring bars were introduced in vials 3 to 11. […] To turn the surfactant OFF, CO2 was slowly bubbled through a solution for 10 min (formation of the OFF form was observed by formation of light yellow solid precipitate). To turn the surfactant ON the solution was heated and stirred while immersed in an oil bath preset at 70° C., for 40 min. The solution in vial 2 was turned OFF. The solution in vial 3 was first turned OFF and then ON. The solution in vial 4 was first turned OFF then ON and finally OFF. After completion of the indicated cycle, each vial was first allowed to cool down to room temperature (if the cycle marked its completion with the surfactant in ON form), the solution was then diluted with deionized water. To be consistent with the previous experiments, all the vials were tightly capped (using […]™) and allowed to stand for 18 h at room temperature (see FIG. 2).

[2] = Switching efficiency by 1H NMR, method A ([(CH3)4N]I internal standard); details: relative to (CH3)4NI set to 100
Excerpt: In both methods, to quantify the concentration of surfactant in solution, its ^1H NMR integration was compared to one of two internal standards of known concentration. In addition to the difference in which internal standard was used, the two methods can also be distinguished from each other on the basis of the timing of the addition of the internal standard. In method A, the standard remains in the solution during the process of switching. In method B, the switching is executed first and the DMF solution of known strength and quantity is added in to the solution.
In both methods, the surfactant was turned OFF with CO2 by positioning the needle that supplied the CO2 to the surfactant solution above the solution in such a way that the slow flow of CO2 was allowed to interact with the surfactant solution at the surface. The switching from ON to OFF required 5 min or less. Increasing the surface area, for example, by slightly tilting the vial, expedited the switching from ON to OFF. To turn the surfactant ON, the solution was stirred at 70° C. for 40 min as described above. After each ON cycle, 0.5 mL of D2O was added to the solution to compensate for the loss in the volume caused by evaporation.
The surfactant solution was prepared by combining 0.046 g of octyl 4-hydroxy-3-nitrobenzoate (1N) and 0.136 g of Na2CO3 in 16.0 mL of D2O. To this solution, 11.5 mg of [(CH3)4N]I was added. The resultant solution was homogenized by sonication for 2 min. […] Stirring bars were introduced in vials 3 to 11. […] The surfactant solutions were turned OFF and ON by the procedure described in Example 3.
As the standard, [(CH3)4N]I was added early into the surfactant solution. All the solutions were filtered and the ^1H NMR spectra of all these solutions were recorded. In all cases, the integration of [(CH3)4N]I was set to 100 and compared with the integration of aromatic proton at δ ˜7.3. […] Thus the concentration of the surfactant in these solutions was substantially zero. […] Thus the experimental results established that the surfactant turns ON and OFF with substantially 100% efficiency.

[3] = pKa of the protonated (neutral) form
[4] = Switching from (1N) to (1A) using exposure to air; details: D2O with Na2CO3, uncapped, stirred at room temperature, 90 min
Procedure: A solution of anionic surfactant (1A) was prepared by combining octyl 4-hydroxy-3-nitrobenzoate (1N) (0.023 g) and Na2CO3 (0.068 g) in 8.0 mL of D2O. The resultant solution was homogenized by sonication for 2 min. Aliquots (1.00 mL) of this solution were transferred by Hamilton syringe with a least count of 0.005 mL, into three different vials, which were labeled as vials A, B and C. Visual observations were made of vials A, B and C after 0, 30 and 90 min of stirring at room temperature under separate conditions as described below and are presented in FIG. 3A, 3B and 3C, respectively. […] The solution in vial A remained in the ON form (1A) throughout the experiment and it appeared as a yellow homogeneous solution that was free of any solids. A magnetic stir bar was introduced in vials B and C. The surfactant solutions in vials B and C were turned OFF by allowing a stream of CO2 provided by a needle to blow, CO2 at the surface of the solutions (the needle was not allowed to dip or touch the surface of the solution). Vial C was then capped and its cap was supplemented by […]™ to inhibit CO2 leakage. Thus at the beginning of this experiment, which is pictured in FIG. 3A, vial A held a solution in the ON form, and vials B and C held a solution in the OFF form. Vial B was then uncapped and stirred under passive exposure to air. Vial C was stirred under a passive CO2 headgas. […]

pH when turned OFF ([1]; 0.01 M compound (1) + 0.08 M Na2CO3, after CO2 bubbling, 25° C.) | pH when turned ON ([1]; 0.01 M compound (1) + 0.08 M Na2CO3, after heating at 70° C. for 40 min, measured at 25° C.) | pH of Original stock solution (ON) ([1]; 0.01 M compound (1) neutral form + 0.08 M Na2CO3 in water, 25° C.) | average pH value of the solution in ON form ([1]; ON form after cycling) | pH of the solution ([1]; vial 1, control, never switched (ON), 1.502 mmol (1N) + 12.02 mmol Na2CO3 in 150 mL water) | pH of the solution ([1]; vials 3, 5, 7, 9, 11: cycles of Table 1 ending ON) | Proton integration at ~7.3 δ ([2]; D2O with Na2CO3, vial 1, control, never switched (ON)) | Proton integration at ~7.3 δ ([2]; D2O with Na2CO3, vials 3, 5, 7, 9, 11: ON/OFF cycles of Table 1 ending ON (70° C., 40 min)) | pKa [3] | average pH value of the solutions in the OFF form ([1]; OFF form) | pH of the solution ([1]; vials 2, 4, 6, 8, 10: cycles of Table 1 ending OFF) | conversion of OFF form to ON form by passive exposure to air [4] | Proton integration at ~7.3 δ ([2]; filtered D2O solution, vials 2, 4, 6, 8, 10: cycles of Table 1 ending OFF (CO2)) | Structure (SMILES)
8.02 | 8.78 | 10.87 | 9.31 | 10.85 | 9.26 and 9.24 and 9.22 and 9.44 and 9.38 | 24 | 23 and 24 and 22 and 20 |  |  |  |  |  | CCCCCCCCOC(=O)c1ccc(O)c([N+](=O)[O-])c1 [compound (1A), 2-nitro-4-(octyloxycarbonyl)phenolate]
 |  |  |  |  |  |  |  | ~5.5 | 7.73 | 7.88 and 7.70 and 7.89 and 7.35 and 7.83 | passive exposure to air is sufficient | 0 | CCCCCCCCOC(=O)c1ccc(O)c([N+](=O)[O-])c1 [compound (1N), octyl 4-hydroxy-3-nitrobenzoate]
